The values that follow come from patent US10485845B2, “Neuronal pain pathway” (THE TRUSTEES OF COLUMBIA UNIVERSITY IN THE CITY OF NEW YORK, priority 2005, dated 2019).

Assay [1] deals with PKG. Conditions: see Setyawan et al., 1999; read-out: inhibitory of PKG at concentration of; cited from earlier work.
Assay [2] deals with Aplysia SNs. Briefly: Induction of LTH in axotomized SNs in vitro (electrophysiology). The class given is cell-based, Aplysia californica. Conditions: inhibitor added to 2-d-cultured SN.
Assay [3] has as its system apMAPK. Briefly: Axotomy-induced apMAPK nuclear translocation in SNs (D8 antibody immunostaining, confocal microscopy). The class given is cell-based, Aplysia. Conditions: 10 μM, SNs in vitro; for nuclear staining of apMAPK: fixed on the third day. On the procedure: Equal amounts of Alexa Fluor 546-labeled BSA, apPKG, or ERK1 were microinjected into the cytoplasm of SNs after 2 d in vitro. The neurites were then severed with a fine needle to elicit an injury response, and 30 min later, the cells were examined by confocal microscopy. […] Scale bar, 20 μm. B, Rp-8-pCPT-cGMPs inhibits axotomy-induced apMAPK nuclear translocation. SNs untreated as controls, and those exposed to either 10 μM Rp-8-pCPT-cGMPs (Rp-cGMPs) or Rp-cAMPs for 2 d in vitro, were immunostained with D8 antibody to localize apMAPK. Top, Representative examples of 2 μm optical sections of control SNs and those exposed to Rp-8-pCPT-cGMPs or Rp-cAMPs. Scale bar, 20 μm. Bottom, Histogram of the mean value of nuclear MAPK immunoreactivity. The staining intensity was determined by a person who was blind to the treatment that the cells received. n, Number of cells for each treatment. Asterisk indicates significant difference from control (p<0.05 by ANOVA and Newman-Keuls tests).
Ganglia, nerve, or cultured cells were fixed with 4% paraformaldehyde in PBS, pH 7.4. The primary antibody was diluted in TBS supplemented with 0.1-0.5% Triton X-100 in TBS and 5% goat serum, and incubated overnight at 4° C. After several washes, an Alexa Fluor 594- or 488-conjugated secondary antibody (Molecular Probes, Eugene, Oreg.) was applied for 1 hr at room temperature. Subsequently, the cells were visualized by confocal fluorescence microscopy (LSM510 confocalmicroscope; Zeiss, Oberkochen, Germany), and images were collected.
The inability of apPKG to enter the nucleus of Aplysia SNs is consistent with the idea that it contributes to the induction of LTH by promoting the nuclear import of apMAPK. If so, then inhibiting the apPKG pathway should block the axotomy-induced entry of apMAPK into the nucleus. Therefore, SNs were exposed in vitro either to the PKG blocker, Rp-8-pCPTcGMPS, or the PKA blocker, Rp-cAMPS, under the conditions that induce LTH (FIG. 6A). On the third day, the cells were fixed, permeabilized, and exposed to antibody D8 to visualize ap-MAPK. […]

The target of another assay is apPKG. Briefly: In vitro kinase assay of recombinant apPKG (32P transfer from ATP to BPDEtide). It is filed as biochemical, Aplysia. Conditions: 100 nM 8-Br-cGMP, BPDEtide substrate. On the procedure:
FIG. 2A-C. apPKG is a type-1 PKG. […] Activity caused by autophosphorylation was subtracted using a peptide control reaction (see Materials and Methods). Note that the kinase activity was inhibited in the presence of 10 μM PKG inhibitor Rp-8-pCPT-cGMPS (RP-G). B, Kinase activity of active recombinant apPKG (25 ng) and bovine PKG type-Iα (bPKG Iα (50 ng) in the presence of four type-I PKG peptide substrates: peptide A, RKISASGP (SEQ ID NO:21); B, RKISASEFDRPLR (SEQ ID NO:22; BPDEtide); and D, RKRSRAE (SEQ ID NO:23) H2Btide). Peptide C, QKRPRRKDTP (SEQ ID NO:24), is a type-II PKG substrate. C, apPKG phosphorylates recombinant VASP at serine-239. Purified recombinant VASP-GST (0.5 μg) was incubated with active apPKG (100 ng) or the recombinant bovine PKG (50 ng), or in the kinase buffer alone, at room temperature for 20 min. After SDS-PAGE, a Western blot was probed with an anti-phospho-VASP (Ser 239) (p-VASP 5239) antibody.
These studies establish apPKG as a member of the soluble type-I family of PKGs.

Assay [4] relates to Aplysia SNs. The assay is described as follows: Induction of LTH in axotomized SNs in vitro (electrophysiology). It is filed as cell-based, Aplysia californica. Conditions: for decrease in spike threshold / increase in repetitive firing: 10 μM, SNs grown in presence of inhibitor, third day in vitro. How it is done:
FIG. 6A-D. Inhibiting NOS, sGC, or apPKG prevents the induction of LTH in SNs in vitro. SNs were removed from the cluster and grown in vitro in the presence of Rp-8-pCPT-cGMPS (RpcGMPS), Rp-8-pCPT-cAMPS (RpcAMPS), or ODQ (all 10 μM). Other SNs removed at the same time were not exposed to any inhibitors as controls (C). A, B, On the third day in vitro, 12 SNs exposed to Rp-cGMPS, Rp-cAMPS, or ODQ, and 12 control SNs were impaled with a microelectrode to assess repetitive firing in response to stimulation at three test currents (A) and to determine spike threshold (B). We examined the cells on the third day, and not later, to avoid more prolonged exposure to the drugs. […] Error bars indicate SEM, and the asterisks indicate significance (p<0.0001 in each case). […] C, Detection of nNOS mRNA in single SNs by RT-PCR. Fragments of appropriate lengths were amplified with primer sets for apnNOS, sensorin A, and the neuron-specific isoform of actin from five separate sets of samples from SNs in vivo (0) or after 16 hr in vitro. The size of the synthesized fragments detected by ethidium bromide staining on 2% agarose gels were identical with those predicted from the known sequences in the database. In addition, the PCR products were verified by DNA sequence analysis. Finally, there was no amplification in the absence of reverse transcriptase, indicating the RNA preparations were not contaminated by genomic DNA (bottom panel). Positions of molecular markers are indicated on the left. D, Effects of the NOS inhibitors on LTH. L-Thiocitrulline (50 μM) and L-NAME (1 mM) were used as described above. n, Number of SNs. The data were normalized to the average excitability of control cells in the same preparation. The asterisk indicates significance (p<0.001), comparing LTH with and without inhibitor by ANOVA and Dunnett's test. Error bars indicate SEM.
Medium was changed every 2 d. Drugs were washed out 1 hr before electrophysiological tests.
Before the start of each recording, the hemolymph was replaced with a 1:1 mixture of artificial seawater and culture medium (without hemolymph; pH 7.6). Standard techniques were used for intracellular stimulation and recording (Ambron et al., 1996). The soma spike threshold was measured with a standard series of 20 msec depolarizing pulses. Repetitive firing was quantified by counting the number of spikes evoked by a series of 2 sec depolarizing pulses at 1, 2, 3, 4, and 5 nA, or 1 sec depolarizing pulses at 2.5 times the current for the 20 msec threshold. Spike amplitude was measured from baseline to the peak of the action potential, and spike duration was the breadth of the action potential at one-half of its maximal height.
To investigate whether the appearance of the LTH requires apPKG activity, the SNs were removed from the ganglion in the presence of either the soluble guanylyl cyclase (sGC) inhibitor ODQ, the PKG inhibitor Rp-8-pCPT-cGMPS, or the PKA inhibitor Rp-cAMPS. The latter was used because PKA has properties in common with PKG (Scott, 1991; Francis and Corbin, 1994) and has been implicated in various forms of synaptic plasticity in Aplysia SNs (Ghirardi et al., 1992; Byrne and Kandel, 1996; Bedi et al., 1998; Muller and Carew, 1998; Chain et al., 1999; Liao et al., 1999; Sutton and Carew, 2000; Antonov et al., 2003). The cells were subsequently allowed to regenerate in the presence of the inhibitors in vitro, and on the third day, their electrophysiological properties were compared with those of SNs that were removed from the same ganglia at the same time, but that had not been exposed to a drug. […] Neither spike broadening nor amplitude were evaluated in these experiments.

Assay [5] has as its system PKG. The assay is described as follows: Blocking of PKG activity at the site of sciatic nerve injury in rat. The class given is in vivo. Conditions: nerve injured in presence of inhibitor; four hours after injury. On the procedure: FIG. 9. Relative PKG activity at various positions of the sciatic nerve relative to point of injury, shown schematically above the graph.
The experiment was carried out as follows. A rat was anesthetized using a standard protocol and the sciatic nerve was exposed and injured in either the absence or the presence of RP-G, or an inhibitor of PKA, Rp-8-pCPT-cAMPS, (“RP-A”). Four hours later, the nerve was sectioned as shown in the schematic above the graph in FIG. 9, and each segment was assayed for PKG activity. In the absence of inhibitor (black bars), active PKG had been transported toward the cell bodies and was enriched in P3.

Assay [6] has as its system apMAPK.
Method: Top, Left, Twenty-five micrograms of a pleural ganglia lysate collected at the indicated times after p5-p9 nerve crush were resolved by SDS-PAGE, and a Western blot was probed with Ab pTpYmapk to detect active ERK-MAPKs. […] All of the values were normalized to levels of total apMAPK. […] Each of the following experiments (B-E) was repeated twice at least, and representative results are shown. […] Left, Pleural neurons were removed from a noninjured animal, a lysate was prepared, and 25 μg was incubated with 100 ng of active apPKG protein or with 1 μM 8-Br-cGMP in the presence or absence of 10 μM U0126. Right, Twenty-five micrograms of axoplasm was incubated with active apPKG as above. Active apMAPK was detected by immunoblotting with Ab pTpYmapk.
ERK activity was assayed as described (Sung et al., 2001). Briefly, proteins and 500 μM ATP were incubated in kinase buffer for 20 min at room temperature. The reaction mixtures were resolved on 10% SDS polyacrylamide gels and subjected to Western blotting with antibody (Ab)pTpYmapk, AbpYmapk, AbpTmapk, or AbpElk1.
The test system of the next assay is rats. Conditions: intrathecal, 10 and 60 minutes later; cited from earlier work.
Assay [7] relates to Aplysia SNs. Conditions: SNs exposed to drug in vitro. How it is done:
SNs were isolated from the pleural ganglia of 50-80 gm animals and were plated on poly-L-lysine-coated dishes containing L15 medium and 50% hemolymph (Dagan and Levitan, 1981; Glanzman etal., 1989). Cultures were maintained at 18° C. for up to 7 d. Medium was changed every 2 d. Drugs were washed out 1 hr before electrophysiological tests.

“Also recorded” adds a separate entry of the source.

On to 10″ deoxybalanol, for which the IC50 in the assay with PKG [1] was 31 nM.
With 14″ decarboxy balanol, the IC50 in the assay with PKG [1] is 19 nM.
In the case of `Nc1nc2c(nc(Sc3ccc(Cl)cc3)n2C2OC3COP(O)(=S)OC3C2O)c(=O)[nH]1` (single isomer, unassigned) [Rp-8-pCPT-cGMPS, guanosine 3′,5′-cyclic monophosphorothioate, 8-(4-chlorophenylthio)-, Rp isomer], the appearance of excitability result in the assay with Aplysia SNs [2] was “Neither Rp-8-pCPT-cGMPS nor ODQ inhibited”. Also, in the assay with apMAPK [3], the “reduction in the level of apMAPK in the nucleus of the SNs” value is “nearly threefold reduction” and the “nuclear staining of apMAPK” value was “dramatic reduction”. Moreover, the “kinase activity of purified inactive recombinant apPKG” value on apPKG (10 μM inhibitor) is “inhibited”. Also, in the assay on Aplysia SNs [4], the “decrease in spike threshold” value is reported as “prevented” and the “increase in repetitive firing” value is on record as “prevented”. In the assay on Aplysia SNs [4] (listed as Rp-cGMPS), the “decrease in spike threshold” value is recorded as “significantly prevented” and the “increase in repetitive firing” value is listed as “significantly reduced”. The “PKG activity in sciatic nerve segments” value in the assay on PKG [5] is listed as “abolished the activity”.
On to `Nc1ncnc2c1ncn2[C@@H]1O[C@@H]2COP(O)(=S)O[C@H]2[C@H]1O` (single isomer, unassigned) [Rp-cAMPS, adenosine 3′,5′-cyclic monophosphorothioate, Rp isomer], for which, in the assay on apMAPK [3], the “nuclear staining of apMAPK” value is listed as “same levels”. In the assay on Aplysia SNs [4], the “decrease in spike threshold” value was “no significant effect; also recorded: not significant” and the “increase in repetitive firing” value is given as “no significant effect”.
Take `Nc1nc2c(nc(Br)n2[C@@H]2O[C@@H]3COP(=O)(O)O[C@H]3[C@H]2O)c(=O)[nH]1` [8-Br-cGMP]: the “activation of inactive apPKG” value in the assay with apPKG was “activated”. Besides, the “level of active apMAPK” value with apMAPK [6] (1 μM 8-Br-cGMP added to 25 μg lysate) is on record as “markedly enhanced”.
In the case of `COC(=O)[C@@H](N)CCCN=C(N)N[N+](=O)[O-].Cl` [L-NAME, N^G-nitro-L-arginine methyl ester hydochioride], in the assay on Aplysia SNs [4] (1 mM, SNs in vitro), the “LTH (maximum firing relative to untreated controls)” value is given as “reduced LTH”.
Regarding `NC(=S)NCCC[C@H](N)C(=O)O` [L-Thiocitrulline, L-thiocitrulline], the “maximum firing relative to untreated controls (LTH)” value with Aplysia SNs [4] (50 μM, SNs in vitro) is “markedly reduced”.
Turning to `O=c1onc2cnc3ccccc3n12` [ODQ, 1-H[1,2,4]oxadiazolo[4,3-a]quinoxalin-1-one], the appearance of excitability result in the assay on Aplysia SNs [2] was “Neither Rp-8-pCPT-cGMPS nor ODQ inhibited”. In the assay with Aplysia SNs [4], the “decrease in spike threshold” value is “significantly prevented” and the “increase in repetitive firing” value is reported as “prevented; also recorded: significantly reduced”.
For `Nc1ncnc2c1nc(Sc1ccc(Cl)cc1)n2C1OC2COP(O)(=S)OC2C1O` (stereo not drawn) [RP-A, Rp-8-pCPT-cAMPS], in the assay with PKG [5], the “PKG activity in sciatic nerve segments” value was “did not change this pattern”.
As for `CCN(CC)CC.Nc1nc2c(nc(Sc3ccc(Cl)cc3)n2[C@@H]2O[C@@H]3COP(O)(=S)O[C@H]3[C@H]2O)c(=O)[nH]1` (stereo partly drawn) [Rp-8-[4-chlorophenyl)thio-cGMPS triethylamine], the antinociception result in the assay on rats is listed as “significant antinociception”.
Regarding `N#CC(=C(/N)Sc1ccccc1N)/C(C#N)=C(\N)Sc1ccccc1N` [U0126], the “extent or pattern of neurite growth” value in the assay with Aplysia SNs [7] was “severe growth defects”. Moreover, the “block of apMAPK activation by active apPKG or 8-Br-cGMP” value in the assay on apMAPK [6] (10 μM U0126) is “not blocked”.
For `O=C(NC1CNCCCC1OC(=O)c1cc(O)c(C(=O)c2c(O)cccc2C(=O)O)c(O)c1)c1ccc(O)cc1` (stereo not drawn) [balanol], in the assay with PKG [1], the IC50 is 1.6 nM.
As for balanol-7R, the IC50 with PKG [1] is 291 nM.
